Reference: patent publication US20230112470A1, “USE OF EGFR/HER2 TYROSINE KINASE INHIBITORS AND/OR HER2/HER3 ANTIBODIES FOR THE TREATMENT OF CANCERS WITH NRG1 FUSIONS” (Board of Regents, The University of Texas System, priority 2020, published 2023)

test system: MDA175-VII (NRG1-DOC4 fusion) cells; experiment: Cell viability by Cell Titer Glo assay, 72 hours treatment; format: cell-based; settings: 72 h, read-out: Average IC50
Experimental: FIG. 1B. Representative dose response curves of MDA175-VII (NRG1-DOC4 fusion) treated with the indicated inhibitors for 72 hours. Cell viability was determined by Cell Titer Glo Assay.
Cell viability was determined by the Cell Titer Glo assay.
Drug screening and IC50 determination. Drug screening is performed as previously described. Briefly, cells are plated in 384-well plates (Greiner Bio-One) at 2000-3000 cells per well in technical triplicate. Seven different concentrations of covalent EGFR/HER2 TKIs and/or HER2/HER3 targeting antibodies or DMSO vehicle are added to reach a final volume of 40 μL per well. After 72 hours, 11 μL of Cell Titer Glo (Promega) is added to each well. Plates are incubated for a minimum of 10 minutes, and bioluminescence is determined using a FLUOstar OPTIMA plate reader (BMG LABTECH). Raw bioluminescence values are normalized to DMSO control treated cells, and values are plotted in GraphPad Prism. […] Drug screens are performed in technical triplicate on each plate and either duplicate or triplicate biological replicates.

`CCOc1cc2ncc(C#N)c(Nc3ccc(OCc4ccccn4)c(Cl)c3)c2cc1NC(=O)/C=C/CN(C)C` [Neratinib, neratinib] was tested, and the IC50 was 0.747 nM.

same assay, conditions: MDA175-VII (NRG1-DOC4 fusion) cells, single HER2 inhibitor, 72 hours; read-out: Average IC50

First: C#Cc1cccc(Nc2ncnc3cc(OCCOC)c(OCCOC)cc23)c1 [Erlotinib, erlotinib]
Second: CNC(=O)CN1CCC(Oc2cc3c(Nc4cccc(Cl)c4F)ncnc3cc2OC)CC1 [Sapitinib, sapitinib]
The IC50 of the first is 4.6-fold higher: 1440 nM for the first, 316 nM for the second.

Compared with `C=CC(=O)Nc1cc(Nc2nccc(-c3cn(C)c4ccccc34)n2)c(OC)cc1N(C)CCN(C)C` [Osimertinib, osimertinib], `CCOc1cc2ncc(C#N)c(Nc3ccc(OCc4ccccn4)c(Cl)c3)c2cc1NC(=O)/C=C/[C@H]1CCCN1C` [Pyrotinib, pyrotinib] is 44-fold lower in IC50: 459 nM for the first, 10.4 nM for the second.

`CN(C)C/C=C/C(=O)Nc1cc2c(Nc3ccc(F)c(Cl)c3)ncnc2cc1O[C@H]1CCOC1` [Afatinib, afatinib] and `COc1cc2ncnc(Nc3ccc(F)c(Cl)c3)c2cc1NC(=O)/C=C/CN1CCCCC1` [Dacomitinib, dacomitinib] are within 1.5-fold of each other in IC50: 0.891 nM for the first, 1.18 nM for the second.

`C=CC(=O)N1CCC[C@@H](n2nc(-c3ccc(Oc4ccccc4)cc3)c3c(N)ncnc32)C1` [Ibrutinib, ibrutinib] and `CS(=O)(=O)CCNCc1ccc(-c2ccc3ncnc(Nc4ccc(OCc5cccc(F)c5)c(Cl)c4)c3c2)o1` [Lapatinib, lapatinib] are within 1.5-fold of each other in IC50: 86.9 nM for the first, 98.6 nM for the second.

same assay, conditions: MDA175-VII cells, anti-HER2 antibody alone (+DMSO), 72 hours; read-out: Average IC50

Compared with T-DM1, “Pertuzumab: recombinant, humanized monoclonal antibody that inhibits dimerization of HER2” is 13-fold lower in IC50: 653 nM for the first, 51.5 nM for the second.

same assay, conditions: MDA175-VII cells, single agent

In the case of “Pertuzumab: recombinant, humanized monoclonal antibody that inhibits dimerization of HER2”, the “inhibition of cell viability (in words)” value is reported as “potently inhibited cell viability”.
